Data on 20 molecules can be found in patent publication US11384066B1, “Heterocyclic compounds useful as aurora a selective inhibitors” (Jacobio Pharmaceuticals Co., Ltd., priority 2020, dated 2022).

Experiment [1] addresses Aurora B (Homo sapiens (Human), UniProt Q96GD4). In words: Aurora B kinase assay (mobility shift assay). Particulars: ratio of Aurora B IC50 to Aurora A IC50. It is filed as biochemical. As to the method:
(§1) Example A: Evaluation of Aurora a and Aurora B Inhibitory Effect—Kinase Assay
(§2) The inhibitory activities of a test compound against Aurora A and Aurora B were measured according to the following method.
(§3) The IC50 value of Aurora A and Aurora B kinase was performed by Sundia MediTech Co. Ltd. using Mobility shift assay.
(§4) • (1) Prepare a 1× kinase buffer [50 mM 4-(2-hydroxyethyl)-1-piperazineethanesulfonic acid (HEPES), PH 7.5, 0.01% Brij-35, 10 mM MgCl2, 2 mM dithiothreitol (DTT)]. • (2) Prepare compound:
(§5) The testing compound was dissolved with DMSO. The testing compound was diluted up to 100× final concentration in a 384-well plate. Transfer 250 nL of the compound dilution to a 384-well assay plate using Echo 550. 100% DMSO of 250 nL was added to the negative control well and the positive control well. • (3) Prepare a 2.5× enzyme solution using the above 1× kinase buffer. • (4) Add 10 μL of the 2.5× enzyme solution to the compound well and the positive control well of the 384-well assay plate. Add 10 μL of the 1× kinase buffer to the negative control well. • (5) The 384-well plate was centrifuged at 1000 rpm for 30 seconds and incubated at room temperature for 10 min. • (6) A mixture of ATP and Kinase substrate 21 with a final concentration of 25/15× was prepared by the 1× kinase buffer. • (7) Add 15 μL of the mixture of 25/15×ATP and kinase substrate solution 21 to start reaction. • (8) The 384-well plate was centrifuged at 1000 rpm for 30 seconds and incubated at room temperature. • (9) 30 μL of the stop and detection buffer was added to stop the kinase reaction and centrifuged at 1000 rpm for 30 seconds. • (10) Collect data on Caliper EZ ReaderII. Data Analysis:
(§6) Conversion %_sample is conversion rate data of samples. Conversion %_min is mean value of negative control (conversion rate data without enzyme activation). Conversion %_max is mean positive control (conversion rate data without compound).
(§7) The log of concentration is on the X axis, and the percentage inhibition is on the Y axis. Fit the Quantitative effect curves with log (inhibitor) vs. response—Variable slope in GraphPad Prism5 obtain IC50 values. Equation used is Y=Bottom+(Top−Bottom)/(1+10^((Log IC50−X)*HillSlope)).

Experiment [2] concerns the target Aurora A (Homo sapiens (Human), UniProt O14965). The experiment in a line: Aurora A kinase assay (mobility shift assay). It counts as biochemical. How it is done: as §1, §2, §3, §4, §5, §6, §7

Aurora A, sequence (O14965 whole entry): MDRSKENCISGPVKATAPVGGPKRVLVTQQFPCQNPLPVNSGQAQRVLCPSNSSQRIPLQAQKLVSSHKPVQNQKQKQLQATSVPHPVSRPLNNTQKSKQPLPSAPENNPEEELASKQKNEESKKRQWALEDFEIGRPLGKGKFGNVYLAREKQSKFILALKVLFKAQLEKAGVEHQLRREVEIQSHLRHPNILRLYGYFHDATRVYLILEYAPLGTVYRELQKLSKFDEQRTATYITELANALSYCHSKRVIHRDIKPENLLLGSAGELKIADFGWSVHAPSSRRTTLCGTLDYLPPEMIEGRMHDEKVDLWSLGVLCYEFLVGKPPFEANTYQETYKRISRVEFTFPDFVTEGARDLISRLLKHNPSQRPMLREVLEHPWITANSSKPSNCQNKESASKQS
Aurora B, sequence (Q96GD4 whole entry): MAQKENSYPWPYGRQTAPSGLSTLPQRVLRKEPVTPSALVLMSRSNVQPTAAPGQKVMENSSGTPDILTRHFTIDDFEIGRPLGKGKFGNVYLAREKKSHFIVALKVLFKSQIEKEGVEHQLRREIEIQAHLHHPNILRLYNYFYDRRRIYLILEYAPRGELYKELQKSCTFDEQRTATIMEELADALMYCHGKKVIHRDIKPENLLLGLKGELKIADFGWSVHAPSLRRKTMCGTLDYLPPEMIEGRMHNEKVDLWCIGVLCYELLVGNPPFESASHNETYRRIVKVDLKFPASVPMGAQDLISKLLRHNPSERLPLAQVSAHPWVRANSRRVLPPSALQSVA

The term IC50 denotes the midpoint of a concentration-inhibition curve. Take `Cc1cc(Nc2cncc(C[C@@]3(C(=O)O)CCN(Cc4cccc(Cl)c4F)[C@H](C)C3)n2)n[nH]1` (stereo in doubt) [Example 45, (2R,4R)-1-(3-chloro-2-fluorobenzyl)-2-methyl-4-((6-((5-methyl-1H-pyrazol-3-yl)amino)pyrazin-2-yl)methyl)piperidine-4-carboxylic acid]: the “IC50 Ratio Aur B/Aur A” value in experiment [1] was 523. Further, in experiment [2], the IC50 is 0.88 nM.

Take `Cc1cc(Nc2ccc(F)c(CC3(C(=O)O)CCN(Cc4cccc(Cl)c4F)CC3)n2)n[nH]1` [Example 1, 1-(3-chloro-2-fluorobenzyl)-4-((3-fluoro-6-((5-methyl-1H-pyrazol-3-yl)amino)pyridin-2-yl)methyl)piperidine-4-carboxylic acid]: the “IC50 Ratio Aur B/Aur A” value in experiment [1] was determined as 2288. Further, the IC50 in experiment [2] is 1.3 nM.

Regarding `CCC1CC(Cc2nc(Nc3cc(C)[nH]n3)ccc2F)(C(=O)O)CCN1Cc1cccc(Cl)c1F` (stereo not shown) [Example 2, 1-(3-chloro-2-fluorobenzyl)-2-ethyl-4-((3-fluoro-6-((5-methyl-1H-pyrazol-3-yl)amino)pyridin-2-yl)methyl)piperidine-4-carboxylic acid], in experiment [1], the “IC50 Ratio Aur B/Aur A” value is 1236. Also, in experiment [2], the IC50 came to 2.9 nM.

In the case of `Cc1cc(Nc2ccc(C)c(C[C@@]3(C(=O)O)CCN(Cc4cccc(Cl)c4F)[C@H](C)C3)n2)n[nH]1` [Example 10, (2R,4R)-1-(3-chloro-2-fluorobenzyl)-2-methyl-4-((3-methyl-6-((5-methyl-1H-pyrazol-3-yl)amino)pyridin-2-yl)methyl) piperidine-4-carboxylic acid], in experiment [1], the “IC50 Ratio Aur B/Aur A” value is recorded as 979. The IC50 in experiment [2] worked out at 1 nM.

Take `Cc1cc(Nc2ccc(Cl)c(C[C@@]3(C(=O)O)CCN(Cc4cccc(Cl)c4F)[C@H](C)C3)n2)n[nH]1` [Example 11, (2R,4R)-1-(3-chloro-2-fluorobenzyl)-4-((3-chloro-6-((5-methyl-1H-pyrazol-3-yl)amino)pyridin-2-yl)methyl)-2-methylpiperidine-4-carboxylic acid]: the “IC50 Ratio Aur B/Aur A” value in experiment [1] was 2264. For the same molecule, in experiment [2], the IC50 was determined as 0.64 nM.

Turning to `Cc1cc(Nc2ccc(F)c(C[C@@]3(C(=O)O)CCN(Cc4c(F)cccc4F)[C@H](C)C3)n2)n[nH]1` [Example 12, (2R,4R)-1-(2,6-difluorobenzyl)-4-((3-fluoro-6-((5-methyl-1H-pyrazol-3-yl)amino)pyridin-2-yl)methyl)-2-methylpiperidine-4-carboxylic acid], in experiment [1], the “IC50 Ratio Aur B/Aur A” value came out at 2560. Besides, the IC50 in experiment [2] turned out to be 2.4 nM.

On to `Cc1cc(Nc2ccc(F)c(C[C@@]3(C(=O)O)CCN(Cc4cccc(F)c4F)[C@H](C)C3)n2)n[nH]1` [Example 15, (2R,4R)-1-(2,3-difluorobenzyl)-4-((3-fluoro-6-((5-methyl-1H-pyrazol-3-yl)amino)pyridin-2-yl)methyl)-2-methylpiperidine-4-carboxylic acid], for which the “IC50 Ratio Aur B/Aur A” value in experiment [1] was determined as 1755. The IC50 in experiment [2] was 0.55 nM.

`Cc1cc(Nc2ccc(F)c(C[C@@]3(C(=O)O)CCN(Cc4cccc(C)c4F)[C@H](C)C3)n2)n[nH]1` [Example 16, (2R,4R)-1-(2-fluoro-3-methylbenzyl)-4-((3-fluoro-6-((5-methyl-1H-pyrazol-3-yl)amino)pyridin-2-yl)methyl)-2-methylpiperidine-4-carboxylic acid]: the “IC50 Ratio Aur B/Aur A” value in experiment [1] came out at 1812. Moreover, the IC50 in experiment [2] is 1.7 nM.

Take `Cc1cc(Nc2ccc(F)c(C[C@@]3(C(=O)O)CCN(Cc4c(Cl)cccc4Cl)[C@H](C)C3)n2)n[nH]1` [Example 17, (2R,4R)-1-(2,6-dichlorobenzyl)-4-((3-fluoro-6-((5-methyl-1H-pyrazol-3-yl)amino)pyridin-2-yl)methyl)-2-methylpiperidine-4-carboxylic acid]: the “IC50 Ratio Aur B/Aur A” value in experiment [1] is recorded as 2974. Besides, in experiment [2], the IC50 is 3.2 nM.

Regarding `Cc1cc(Nc2ccc(F)c(C[C@@]3(C(=O)O)CCN(Cc4cccc(C(F)(F)F)c4)[C@H](C)C3)n2)n[nH]1` [Example 21, (2R,4R)-4-((3-fluoro-6-((5-methyl-1H-pyrazol-3-yl)amino)pyridin-2-yl)methyl)-2-methyl-1-(3-(trifluoromethyl)benzyl) piperidine-4-carboxylic acid], in experiment [1], the “IC50 Ratio Aur B/Aur A” value was 1789. Besides, the IC50 in experiment [2] amounted to 3.1 nM.

`Cc1cc(Nc2ccc(F)c(C[C@@]3(C(=O)O)CCN(Cc4cc(Cl)c(F)c(Cl)c4)[C@H](C)C3)n2)n[nH]1` [Example 23, (2R,4R)-1-(3,5-dichloro-4-fluorobenzyl)-4-((3-fluoro-6-((5-methyl-1H-pyrazol-3-yl)amino)pyridin-2-yl)methyl)-2-methylpiperidine-4-carboxylic acid]: the “IC50 Ratio Aur B/Aur A” value in experiment [1] amounted to 613. Further, the IC50 in experiment [2] came out at 0.91 nM.

Consider `Cc1cc(Nc2ncc(F)c(C[C@@]3(C(=O)O)CCN(Cc4cccc(Cl)c4F)[C@H](C)C3)n2)n[nH]1` [Example 26, (2R,4R)-1-(3-chloro-2-fluorobenzyl)-4-((5-fluoro-2-((5-methyl-1H-pyrazol-3-yl)amino)pyrimidin-4-yl)methyl)-2-methylpiperidine-4-carboxylic acid], for which the “IC50 Ratio Aur B/Aur A” value in experiment [1] is 1499. The IC50 in experiment [2] came to 2.9 nM.

Turning to `Cc1cc(Nc2ccc(F)c(C[C@@]3(C(=O)O)CCN(Cc4ccc(F)c(Cl)c4F)[C@H](C)C3)n2)n[nH]1` [Example 27, (2R,4R)-1-(3-chloro-2,4-difluorobenzyl)-4-((3-fluoro-6-((5-methyl-1H-pyrazol-3-yl)amino)pyridin-2-yl)methyl)-2-methylpiperidine-4-carboxylic acid], the “IC50 Ratio Aur B/Aur A” value in experiment [1] is listed as 622. For the same molecule, in experiment [2], the half-maximal inhibitory concentration (IC50) was found to be 0.81 nM.

`Cc1cc(Nc2cccc(C[C@@]3(C(=O)O)CCN(Cc4cccc(Cl)c4F)[C@H](C)C3)n2)n[nH]1` [Example 29, (2R,4R)-1-(3-chloro-2-fluorobenzyl)-2-methyl-4-((6-((5-methyl-1H-pyrazol-3-yl)amino)pyridin-2-yl)methyl)piperidine-4-carboxylic acid]: the “IC50 Ratio Aur B/Aur A” value in experiment [1] came out at 586. Also, the half-inhibitory concentration (IC50) in experiment [2] came out at 1.4 nM.

For `Cc1cc(Nc2nc(C[C@@]3(C(=O)O)CCN(Cc4cccc(Cl)c4F)[C@H](C)C3)cnc2C)n[nH]1` [Example 33, (2R,4R)-1-(3-chloro-2-fluorobenzyl)-2-methyl-4-((5-methyl-6-((5-methyl-1H-pyrazol-3-yl)amino)pyrazin-2-yl)methyl) piperidine-4-carboxylic acid], in experiment [1], the “IC50 Ratio Aur B/Aur A” value worked out at 3757. Further, in experiment [2], the IC50 was 1.5 nM.

With `Cc1cc(Nc2nc(C[C@@]3(C(=O)O)CCN(Cc4cccc(Cl)c4F)[C@H](C)C3)c(F)cc2C)[nH]n1` [Example 35, (2R,4R)-1-(3-chloro-2-fluorobenzyl)-4-((3-fluoro-5-methyl-6-((3-methyl-1H-pyrazol-5-yl)amino)pyridin-2-yl)methyl)-2-methylpiperidine-4-carboxylic acid], in experiment [1], the “IC50 Ratio Aur B/Aur A” value turned out to be 2403. Besides, the IC50 in experiment [2] was determined as 1.9 nM.

Regarding `Cc1cc(Nc2ccc(F)c(C[C@@]3(C(=O)O)CCN(C(=O)Cc4cccc(Cl)c4F)[C@H](C)C3)n2)n[nH]1` [Example 38, (2R,4R)-1-(2-(3-chloro-2-fluorophenyl)acetyl)-4-((3-fluoro-6-((5-methyl-1H-pyrazol-3-yl)amino)pyri-din-2-yl)methyl)-2-methyl-piperidine-4-carboxylic acid], the “IC50 Ratio Aur B/Aur A” value in experiment [1] is given as 986. In experiment [2], the IC50 turned out to be 0.85 nM.

`Cc1cc(Nc2ccc(F)c(C[C@@]3(C(=O)O)CCN(S(=O)(=O)c4ccccc4C(F)(F)F)[C@H](C)C3)n2)n[nH]1` [Example 39, (2R,4R)-4-((3-fluoro-6-((5-methyl-1H-pyrazol-3-yl)amino)pyridin-2-yl)methyl)-2-methyl-1-((2-(trifluoromethyl)phenyl)sulfonyl)piperidine-4-carboxylic acid]: in experiment [1], the “IC50 Ratio Aur B/Aur A” value was 3019. The IC50 in experiment [2] was 0.57 nM.

For `Cc1cc(Nc2ccc(F)c(C[C@@]3(C(=O)O)CCN([C@@H](C)c4cccc(Cl)c4F)[C@H](C)C3)n2)n[nH]1` [Example 41, (2R,4R)-1-(1-(3-chloro-2-fluorophenyl)ethyl)-4-((3-fluoro-6-((5-methyl-1H-pyrazol-3-yl)amino)pyridin-2-yl)methyl)-2-methylpiperidine-4-carboxylic acid], the “IC50 Ratio Aur B/Aur A” value in experiment [1] is recorded as 3682. Further, the IC50 in experiment [2] stood at 2.7 nM.

For the molecule `Cc1cc(Nc2cc(C)c(F)c(CC3(C(=O)O)CCN(Cc4cccc(Cl)c4F)CC3)n2)n[nH]1` [Example 51, 1-(3-chloro-2-fluorobenzyl)-4-((3-fluoro-4-methyl-6-((5-methyl-1H-pyrazol-3-yl)amino)-pyridin-2-yl)methyl)piper-idine-4-carboxylic acid], the “IC50 Ratio Aur B/Aur A” value in experiment [1] amounted to 2833. In experiment [2], the IC50 came to 0.22 nM.
